According to patent publication US20260242419A1, “A CYCLIC PEPTIDE FOR TRAPPING INTERLEUKIN-1 BETA” (Merck Sharp & Dohme LLC, priority 2023, published 2026):
Starred links: 1 amine or outer side, 2 acyl side, 3 side chain; linkers in the order of their positions; H or OH if unused. Non-standard residues stand in square brackets, D forms with d. Residues, ends and D or L forms follow the SMILES beside them. Phe(4-(trans-4-COOH-cHex)) = N[C@@H](Cc1ccc([C@H]2CC[C@H](C(=O)O)CC2)cc1)C(=O)O; Phe(4-(cis-4-COOH-cHex)) = N[C@@H](Cc1ccc([C@H]2CC[C@@H](C(=O)O)CC2)cc1)C(=O)O; dPro(4R-(4-pyridylmethyl)) = O=C(O)[C@H]1C[C@@H](Cc2ccncc2)CN1; Trp(βS-Me,4-F) = C[C@@H](c1c[nH]c2cccc(F)c12)[C@H](N)C(=O)O; Bip(4'-COOH) = N[C@@H](Cc1ccc(-c2ccc(C(=O)O)cc2)cc1)C(=O)O; Ala(1-bicyclo(1.1.1)pentyl) = N[C@@H](CC12CC(C1)C2)C(=O)O; dPro(4R-Bzl(4-F)) = O=C(O)[C@H]1C[C@@H](Cc2ccc(F)cc2)CN1; Ala(pyrimidin-5-yl) = N[C@@H](Cc1cncnc1)C(=O)O; Phe(4-COOH) = N[C@@H](Cc1ccc(C(=O)O)cc1)C(=O)O; Ala(2-pyrazinyl) = N[C@@H](Cc1cnccn1)C(=O)O; Pro(cis-4-F) = O=C(O)[C@@H]1C[C@H](F)CN1; X23 = O=C([C@H](Cc1ncccn1)N[*:1])[*:2]; X47 = O=C([C@H](Cc1cccnn1)N[*:1])[*:2]; 4Pal = N[C@@H](Cc1ccncc1)C(=O)O; d(αMeS) = C[C@@](N)(CO)C(=O)O; αMeS = C[C@](N)(CO)C(=O)O; Orn = NCCC[C@H](N)C(=O)O; Api = NC1(C(=O)O)CCNCC1; Dab = NCC[C@H](N)C(=O)O; Aib = CC(C)(N)C(=O)O

These compounds were tested against T1, IL-1β (Homo sapiens, UniProt P01584) (assay: IL-6 assay in MRC5 cells: inhibition of IL-1β induced IL-6 secretion (AlphaLISA)). Conditions: inhibition of IL-1β induced IL-6 secretion in MRC5 cells; read-out: MRC5 IC50.
T1 construct: purchased BioLegend 579404
T1 sequence (P01584 117-269): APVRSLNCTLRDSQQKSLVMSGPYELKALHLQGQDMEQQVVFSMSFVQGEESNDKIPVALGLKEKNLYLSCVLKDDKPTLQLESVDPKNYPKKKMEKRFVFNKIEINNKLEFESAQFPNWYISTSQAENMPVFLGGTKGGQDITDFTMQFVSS
Format: cell-based
Outline: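 Compound was pre-incubated 1 h at ambient temperature with recombinant human IL-1β at 2λ EC80 before adding human lung fibroblast MRC5 cells (3000/well) in EMEM with 0.025% BSA. After overnight culture at 37 °C, 5% CO2, secreted IL-6 in conditioned medium was measured by AlphaLISA; IC50 from 4-parameter logistic fits.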
Work on C[C@@H](c1c[nH]c2cccc(F)c12)[C@@H]1NC(=O)[C@@H]2C[C@H](F)CN2C(=O)CNC(=O)[C@H](Cc2ccc(C(=O)O)cc2)NC(=O)[C@H](Cc2ccncc2)NC(=O)[C@H](Cc2ccc(-c3ccc(C(=O)O)cc3)cc2)NC(=O)[C@H]2C[C@@H](Cc3ccc(F)cc3)CN2C(=O)CNC(=O)[C@H](CCN)NC(=O)[C@H](CCC(N)=O)NC(=O)[C@H](Cc2cnccn2)NC(=O)C(C)(C)NC(=O)[C@H](Cc2c[nH]c3ccccc23)NC(=O)[C@H](CCC(=O)O)NC(=O)C(C)(C)NC1=O [Example 101] (cyclo([4Pal][Phe(4-COOH)]G[Pro(cis-4-F)][Trp(βS-Me,4-F)][Aib]EW[Aib][Ala(2-pyrazinyl)]Q[Dab]G[dPro(4R-Bzl(4-F))][Bip(4'-COOH)])) yielded an IC50 of 0.021 nM.
C[C@@H](c1c[nH]c2cccc(F)c12)[C@@H]1NC(=O)[C@@H]2C[C@H](F)CN2C(=O)CNC(=O)[C@H](Cc2ccc(C(=O)O)cc2)NC(=O)[C@H](Cc2ccncc2)NC(=O)[C@H](Cc2ccc(-c3ccc(C(=O)O)cc3)cc2)NC(=O)[C@H]2C[C@@H](Cc3ccc(F)cc3)CN2C(=O)CNC(=O)[C@H](CCN)NC(=O)[C@H](CCC(N)=O)NC(=O)[C@H](Cc2cccnn2)NC(=O)C(C)(C)NC(=O)[C@H](Cc2c[nH]c3ccccc23)NC(=O)[C@H](CCC(=O)O)NC(=O)C(C)(C)NC1=O [Example 102] (cyclo([Bip(4'-COOH)][4Pal][Phe(4-COOH)]G[Pro(cis-4-F)][Trp(βS-Me,4-F)][Aib]EW[Aib][X47]Q[Dab]G[dPro(4R-Bzl(4-F))])) was tested, and the IC50 was 0.021 nM.
Compound C[C@@H](c1c[nH]c2cccc(F)c12)[C@@H]1NC(=O)[C@@H]2C[C@H](F)CN2C(=O)CNC(=O)[C@H](Cc2ccc(C(=O)O)cc2)NC(=O)[C@H](CC23CC(C2)C3)NC(=O)[C@H](Cc2ccc([C@H]3CC[C@@H](C(=O)O)CC3)cc2)NC(=O)[C@H]2C[C@@H](Cc3ccc(F)cc3)CN2C(=O)CNC(=O)[C@H](CCN)NC(=O)[C@H](CCC(N)=O)NC(=O)[C@H](CO)NC(=O)C2(CCNCC2)NC(=O)[C@H](Cc2c[nH]c3ccccc23)NC(=O)[C@H](CCC(=O)O)NC(=O)C(C)(C)NC1=O [Example 105] (cyclo([Phe(4-(cis-4-COOH-cHex))][Ala(1-bicyclo(1.1.1)pentyl)][Phe(4-COOH)]G[Pro(cis-4-F)][Trp(βS-Me,4-F)][Aib]EW[Api]SQ[Dab]G[dPro(4R-Bzl(4-F))])) has an IC50 of 0.083 nM.
For C[C@@H](c1c[nH]c2cccc(F)c12)[C@@H]1NC(=O)[C@@H]2C[C@H](F)CN2C(=O)CNC(=O)[C@H](Cc2ccc(C(=O)O)cc2)NC(=O)[C@H](CC23CC(C2)C3)NC(=O)[C@H](Cc2ccc([C@H]3CC[C@@H](C(=O)O)CC3)cc2)NC(=O)[C@H]2C[C@@H](Cc3ccc(F)cc3)CN2C(=O)CNC(=O)[C@H](CCN)NC(=O)[C@H](CCC(N)=O)NC(=O)[C@H](CO)NC(=O)C(C)(C)NC(=O)[C@H](Cc2c[nH]c3ccccc23)NC(=O)[C@H](CO)NC(=O)C(C)(C)NC1=O [Example 106] (cyclo([Phe(4-(cis-4-COOH-cHex))][Ala(1-bicyclo(1.1.1)pentyl)][Phe(4-COOH)]G[Pro(cis-4-F)][Trp(βS-Me,4-F)][Aib]SW[Aib]SQ[Dab]G[dPro(4R-Bzl(4-F))])), the IC50 was 0.031 nM.
For C[C@@H](c1c[nH]c2cccc(F)c12)[C@@H]1NC(=O)[C@@H]2C[C@H](F)CN2C(=O)CNC(=O)[C@H](Cc2ccc(C(=O)O)cc2)NC(=O)[C@H](CC23CC(C2)C3)NC(=O)[C@H](Cc2ccc([C@H]3CC[C@@H](C(=O)O)CC3)cc2)NC(=O)[C@H]2C[C@@H](Cc3ccc(F)cc3)CN2C(=O)CNC(=O)[C@H](CCN)NC(=O)[C@H](CCC(N)=O)NC(=O)[C@H](CO)NC(=O)C(C)(C)NC(=O)[C@H](Cc2c[nH]c3ccccc23)NC(=O)[C@H](CCC(=O)O)NC(=O)[C@](C)(CO)NC1=O [Example 107] (cyclo([Phe(4-(cis-4-COOH-cHex))][Ala(1-bicyclo(1.1.1)pentyl)][Phe(4-COOH)]G[Pro(cis-4-F)][Trp(βS-Me,4-F)][αMeS]EW[Aib]SQ[Dab]G[dPro(4R-Bzl(4-F))])), the IC50 was 0.063 nM.
Compound C[C@@H](c1c[nH]c2cccc(F)c12)[C@@H]1NC(=O)[C@@H]2C[C@H](F)CN2C(=O)CNC(=O)[C@H](Cc2ccc(C(=O)O)cc2)NC(=O)[C@H](Cc2ccncc2)NC(=O)[C@H](Cc2ccc(-c3ccc(C(=O)O)cc3)cc2)NC(=O)[C@H]2C[C@@H](Cc3ccncc3)CN2C(=O)CNC(=O)[C@H](CCCN)NC(=O)[C@H](CCC(N)=O)NC(=O)[C@H](Cc2cncnc2)NC(=O)C(C)(C)NC(=O)[C@H](Cc2c[nH]c3ccccc23)NC(=O)[C@H](CO)NC(=O)C(C)(C)NC1=O [Example 108] (cyclo([Bip(4'-COOH)][4Pal][Phe(4-COOH)]G[Pro(cis-4-F)][Trp(βS-Me,4-F)][Aib]SW[Aib][Ala(pyrimidin-5-yl)]Q[Orn]G[dPro(4R-(4-pyridylmethyl))])) has an IC50 of 0.024 nM.
For C[C@@H](c1c[nH]c2cccc(F)c12)[C@@H]1NC(=O)[C@@H]2C[C@H](F)CN2C(=O)CNC(=O)[C@H](Cc2ccc(C(=O)O)cc2)NC(=O)[C@H](CC23CC(C2)C3)NC(=O)[C@H](Cc2ccc(-c3ccc(C(=O)O)cc3)cc2)NC(=O)[C@H]2C[C@@H](Cc3ccncc3)CN2C(=O)CNC(=O)[C@H](CCCN)NC(=O)[C@H](CCC(N)=O)NC(=O)[C@H](Cc2cncnc2)NC(=O)C(C)(C)NC(=O)[C@H](Cc2c[nH]c3ccccc23)NC(=O)[C@H](CO)NC(=O)C(C)(C)NC1=O [Example 109] (cyclo([Bip(4'-COOH)][Ala(1-bicyclo(1.1.1)pentyl)][Phe(4-COOH)]G[Pro(cis-4-F)][Trp(βS-Me,4-F)][Aib]SW[Aib][Ala(pyrimidin-5-yl)]Q[Orn]G[dPro(4R-(4-pyridylmethyl))])), the IC50 was 0.036 nM.
Work on C[C@@H](c1c[nH]c2cccc(F)c12)[C@@H]1NC(=O)[C@@H]2C[C@H](F)CN2C(=O)CNC(=O)[C@H](Cc2ccc(C(=O)O)cc2)NC(=O)[C@H](CC23CC(C2)C3)NC(=O)[C@H](Cc2ccc(-c3ccc(C(=O)O)cc3)cc2)NC(=O)[C@H]2C[C@@H](Cc3ccc(F)cc3)CN2C(=O)CNC(=O)[C@H](CCN)NC(=O)[C@H](CCC(N)=O)NC(=O)[C@H](CCCN)NC(=O)C(C)(C)NC(=O)[C@H](Cc2c[nH]c3ccccc23)NC(=O)[C@H](CO)NC(=O)C(C)(C)NC1=O [Example 110] (cyclo([Bip(4'-COOH)][Ala(1-bicyclo(1.1.1)pentyl)][Phe(4-COOH)]G[Pro(cis-4-F)][Trp(βS-Me,4-F)][Aib]SW[Aib][Orn]Q[Dab]G[dPro(4R-Bzl(4-F))])) yielded an IC50 of 0.038 nM.
C[C@@H](c1c[nH]c2cccc(F)c12)[C@@H]1NC(=O)[C@@H]2C[C@H](F)CN2C(=O)CNC(=O)[C@H](Cc2ccc(C(=O)O)cc2)NC(=O)[C@H](Cc2ccncc2)NC(=O)[C@H](Cc2ccc(-c3ccc(C(=O)O)cc3)cc2)NC(=O)[C@H]2C[C@@H](Cc3ccncc3)CN2C(=O)CNC(=O)[C@H](CCN)NC(=O)[C@H](CCC(N)=O)NC(=O)[C@H](Cc2cncnc2)NC(=O)[C@@](C)(CO)NC(=O)[C@H](Cc2c[nH]c3ccccc23)NC(=O)[C@H](CO)NC(=O)C(C)(C)NC1=O [Example 111] (cyclo([Bip(4'-COOH)][4Pal][Phe(4-COOH)]G[Pro(cis-4-F)][Trp(βS-Me,4-F)][Aib]SW[d(αMeS)][Ala(pyrimidin-5-yl)]Q[Dab]G[dPro(4R-(4-pyridylmethyl))])) was tested, and the IC50 was 0.019 nM.
C[C@@H](c1c[nH]c2cccc(F)c12)[C@@H]1NC(=O)[C@@H]2C[C@H](F)CN2C(=O)CNC(=O)[C@H](Cc2ccc(C(=O)O)cc2)NC(=O)[C@H](CC23CC(C2)C3)NC(=O)[C@H](Cc2ccc(-c3ccc(C(=O)O)cc3)cc2)NC(=O)[C@H]2C[C@@H](Cc3ccncc3)CN2C(=O)CNC(=O)[C@H](CCN)NC(=O)[C@H](CCC(N)=O)NC(=O)[C@H](Cc2cncnc2)NC(=O)[C@@](C)(CO)NC(=O)[C@H](Cc2c[nH]c3ccccc23)NC(=O)[C@H](CO)NC(=O)C(C)(C)NC1=O [Example 112] (cyclo([Bip(4'-COOH)][Ala(1-bicyclo(1.1.1)pentyl)][Phe(4-COOH)]G[Pro(cis-4-F)][Trp(βS-Me,4-F)][Aib]SW[d(αMeS)][Ala(pyrimidin-5-yl)]Q[Dab]G[dPro(4R-(4-pyridylmethyl))])) gave an IC50 of 0.018 nM.
In the case of C[C@@H](c1c[nH]c2cccc(F)c12)[C@@H]1NC(=O)[C@@H]2C[C@H](F)CN2C(=O)CNC(=O)[C@H](Cc2ccc(C(=O)O)cc2)NC(=O)[C@H](Cc2ccncc2)NC(=O)[C@H](Cc2ccc(-c3ccc(C(=O)O)cc3)cc2)NC(=O)[C@H]2C[C@@H](Cc3ccc(F)cc3)CN2C(=O)CNC(=O)[C@H](CCN)NC(=O)[C@H](CCC(N)=O)NC(=O)[C@H](Cc2ncccn2)NC(=O)C(C)(C)NC(=O)[C@H](Cc2c[nH]c3ccccc23)NC(=O)[C@H](CCC(=O)O)NC(=O)C(C)(C)NC1=O [Example 113] (cyclo([Bip(4'-COOH)][4Pal][Phe(4-COOH)]G[Pro(cis-4-F)][Trp(βS-Me,4-F)][Aib]EW[Aib][X23]Q[Dab]G[dPro(4R-Bzl(4-F))])), the IC50 is reported as 0.018 nM.
C[C@@H](c1c[nH]c2cccc(F)c12)[C@@H]1NC(=O)[C@@H]2C[C@H](F)CN2C(=O)CNC(=O)[C@H](Cc2ccc(C(=O)O)cc2)NC(=O)[C@H](Cc2ccncc2)NC(=O)[C@H](Cc2ccc([C@H]3CC[C@H](C(=O)O)CC3)cc2)NC(=O)[C@H]2C[C@@H](Cc3ccc(F)cc3)CN2C(=O)CNC(=O)[C@H](CCN)NC(=O)[C@H](CCC(N)=O)NC(=O)[C@H](Cc2cncnc2)NC(=O)C(C)(C)NC(=O)[C@H](Cc2c[nH]c3ccccc23)NC(=O)[C@H](CCC(=O)O)NC(=O)C(C)(C)NC1=O [Example 114] (cyclo([Phe(4-(trans-4-COOH-cHex))][4Pal][Phe(4-COOH)]G[Pro(cis-4-F)][Trp(βS-Me,4-F)][Aib]EW[Aib][Ala(pyrimidin-5-yl)]Q[Dab]G[dPro(4R-Bzl(4-F))])) was tested, and the IC50 was 0.035 nM.
